Test results: the NIST ThermoML archive (doi:10.1021/acs.jced.6b00181)

Experiment: xn = mol fraction of the nth substance listed
Details: Liquid, Other PVT measurement

C=CC [propene] + CCCCCC
Details | mass density [kg/m3]
295.6 K, 55300 kPa, x1 = 0.1414 | 688.2
295.6 K, 55600 kPa, x1 = 0.1414 | 688.2
295.6 K, 58000 kPa, x1 = 0.1414 | 689.8
295.6 K, 58400 kPa, x1 = 0.8985 | 594.2
295.6 K, 61800 kPa, x1 = 0.8985 | 596.6
295.6 K, 61900 kPa, x1 = 0.1414 | 692.5
295.6 K, 66100 kPa, x1 = 0.1414 | 695.3
295.6 K, 66200 kPa, x1 = 0.1414 | 695.3
295.6 K, 67300 kPa, x1 = 0.8985 | 601.4
324.4 K, 900 kPa, x1 = 0.4466 | 560.3
324.4 K, 1400 kPa, x1 = 0.4466 | 561.7
324.4 K, 1900 kPa, x1 = 0.4466 | 562.5
324.4 K, 2100 kPa, x1 = 0.4466 | 563.2
324.4 K, 3400 kPa, x1 = 0.4466 | 565.5
324.4 K, 4900 kPa, x1 = 0.4466 | 568.9
324.4 K, 6800 kPa, x1 = 0.4466 | 571.9
324.4 K, 10200 kPa, x1 = 0.4466 | 577.8
324.4 K, 17200 kPa, x1 = 0.4466 | 588.5
324.4 K, 23800 kPa, x1 = 0.4466 | 597.6
324.4 K, 30700 kPa, x1 = 0.4466 | 606.1
324.4 K, 37800 kPa, x1 = 0.4466 | 614
324.4 K, 44700 kPa, x1 = 0.4466 | 620.3
324.4 K, 51400 kPa, x1 = 0.4466 | 626.2
324.4 K, 58300 kPa, x1 = 0.4466 | 631.8
324.4 K, 63700 kPa, x1 = 0.4466 | 636
324.4 K, 67500 kPa, x1 = 0.4466 | 638.9
324.6 K, 700 kPa, x1 = 0.1414 | 611.8
324.6 K, 1200 kPa, x1 = 0.1414 | 612.7
324.6 K, 1300 kPa, x1 = 0.606 | 533.2
324.6 K, 1800 kPa, x1 = 0.606 | 534.5
324.6 K, 1900 kPa, x1 = 0.1414 | 614
324.6 K, 2500 kPa, x1 = 0.606 | 536.2
324.6 K, 3400 kPa, x1 = 0.606 | 538.3
324.6 K, 3600 kPa, x1 = 0.1414 | 616.6
324.6 K, 5000 kPa, x1 = 0.1414 | 618.8
324.6 K, 5300 kPa, x1 = 0.606 | 542.5
324.6 K, 6800 kPa, x1 = 0.606 | 545.6
324.6 K, 7100 kPa, x1 = 0.1414 | 621.9
324.6 K, 8900 kPa, x1 = 0.1414 | 624.1
324.6 K, 9600 kPa, x1 = 0.1414 | 625.5
324.6 K, 10300 kPa, x1 = 0.1414 | 625.9
324.6 K, 10300 kPa, x1 = 0.606 | 552.4
324.6 K, 12300 kPa, x1 = 0.1414 | 628.6
324.6 K, 13600 kPa, x1 = 0.1414 | 630
324.6 K, 17100 kPa, x1 = 0.1414 | 634.1
324.6 K, 17400 kPa, x1 = 0.606 | 564.6
324.6 K, 19700 kPa, x1 = 0.1414 | 637.3
324.6 K, 23900 kPa, x1 = 0.606 | 573.8
324.6 K, 24100 kPa, x1 = 0.1414 | 642
324.6 K, 27400 kPa, x1 = 0.1414 | 644.9
324.6 K, 30700 kPa, x1 = 0.1414 | 648.2
324.6 K, 30700 kPa, x1 = 0.606 | 583.4
324.6 K, 34300 kPa, x1 = 0.1414 | 651.6
324.6 K, 37500 kPa, x1 = 0.1414 | 654.6
324.6 K, 37900 kPa, x1 = 0.606 | 592.4
324.6 K, 44300 kPa, x1 = 0.1414 | 660.5
324.6 K, 44400 kPa, x1 = 0.606 | 599.1
324.6 K, 47800 kPa, x1 = 0.1414 | 663.5
324.6 K, 51300 kPa, x1 = 0.1414 | 666.6
324.6 K, 51400 kPa, x1 = 0.606 | 606.4
324.6 K, 55200 kPa, x1 = 0.1414 | 669.7
324.6 K, 58100 kPa, x1 = 0.606 | 612.2
324.6 K, 58400 kPa, x1 = 0.1414 | 672.2
324.6 K, 62700 kPa, x1 = 0.1414 | 675.4
324.6 K, 63000 kPa, x1 = 0.606 | 616.2
324.6 K, 66500 kPa, x1 = 0.1414 | 678.5
324.6 K, 67200 kPa, x1 = 0.606 | 619.4
325.1 K, 2100 kPa, x1 = 0.9003 | 470.3
325.1 K, 2800 kPa, x1 = 0.9003 | 473.5
325.1 K, 3700 kPa, x1 = 0.9003 | 476.8
325.1 K, 7000 kPa, x1 = 0.9003 | 489.5
325.1 K, 10400 kPa, x1 = 0.9003 | 499.8
325.1 K, 16500 kPa, x1 = 0.9003 | 515.1
325.1 K, 24000 kPa, x1 = 0.9003 | 530.6
325.1 K, 30900 kPa, x1 = 0.9003 | 542.4
325.1 K, 37500 kPa, x1 = 0.9003 | 551.5
325.1 K, 44500 kPa, x1 = 0.9003 | 559.6
325.1 K, 51500 kPa, x1 = 0.9003 | 567.6
325.1 K, 58300 kPa, x1 = 0.9003 | 574.5
325.1 K, 63700 kPa, x1 = 0.9003 | 580.2
325.1 K, 67200 kPa, x1 = 0.9003 | 583.3
325.5 K, 2400 kPa, x1 = 0.8985 | 471.9
325.5 K, 2800 kPa, x1 = 0.8985 | 474.2
325.5 K, 3500 kPa, x1 = 0.8985 | 476.7
325.5 K, 4700 kPa, x1 = 0.8985 | 481.2
